For orientation: EC50 means the concentration needed to bring the measured effect to its halfway point.

The source of these data is patent US12662473B2, “Inhibitors for programmed cell necrosis and preparation method therefor and use thereof” (SHANGHAI INSTITUTE OF ORGANIC CHEMISTRY, CHINESE ACADEMY OF …, priority 2019, dated 2026).

The structures appear in SMILES notation. Read-outs that look alike come from different tables or passages of the source.

For one experiment, the system named is L929 cells. The experiment can be described thus: TNF-induced programmed cell necrosis inhibition, Cell Titer-Glo viability. It counts as cell-based, mouse. As to conditions: read-out: EC50 inhibitory activity on programmed cell necrosis. The text has this: (§1) The adopted biological assay protocol was: the programmed necroptosis effect of compounds on TNF-induced in FADD (Fas-Associated Death Domain) deficient Jurkat cells and L929 cells.
(§2) In order to verify the inhibitory effect of the compounds of the present invention on programmed cell necrosis at the cellular level, cell types closely related to the RIP1 pathway, namely FADD deficient Jurkat cells (human peripheral blood leukemia T cell line) and L929 cells, were selected. Two different stimulation methods were used: tumor necrosis factor (TNFα) used alone, or TNFα used in combination with mitochondria-derived cysteine aspartate activator (SMAC). Cells viability was calculated by detecting chemiluminescence values, and the biological activity of the compound for inhibiting programmed cell necrosis can be obtained.
(§3) Methods: FADD deficient Jurkat cells: FADD deficient Jurkat cells (human peripheral blood leukemia T cell line) were cultured in vitro. After growing to the logarithmic growth phase, the cells were collected, centrifuged at 1000 rpm for 5 min, the supernatant was discarded, and the cell concentration was adjusted to 2.5×10^5/mL. Cells were seeded into 384-well plates, 40 μl per well. 5 μL of Smac (50 nM) diluted in cell culture medium and 5 μL of each compound were added to the corresponding wells. After pretreatment at 37° C. for 1 h, 5 μL of TNFα (50 ng/mL) diluted in cell culture medium was added to each well of the stimulation group, and 5 μL of the culture medium was added to the control group. The plate was cultured in a cell incubator (37° C., 5% CO2) for 14 h, and 15 μl of Cell Titer-Glo solution was added to each well, then incubated for 30 min at room temperature, and intracellular ATP level was measured by detecting luminescence. The unstimulated DMSO control wells were taken as 100% cell viability. L929 cells: The L929 cells (mouse fibroblasts) were cultured in vitro, digested and diluted to 6.25×10^4/ml, and the cells were seeded into 384-well plates, 40 μl per well. The plate was placed in a cell incubator (37° C., 5% CO2) for 12 hours. 5 μL of Smac (500 nM) diluted in cell culture medium and 5 μL of each compound were added to the corresponding wells. After pretreatment at 37° C. for 1 h, 5 μL of TNFα (500 ng/mL) diluted in cell culture medium was added to each well of the stimulation group, and 5 μL of the culture medium was added to the control group. After the plate was cultured for 14 h in a cell incubator (37° C., 5% CO2), 15 μl of Cell Titer-Glo solution was added to each well. The plate was incubated at room temperature for 30 min, and intracellular ATP level was measured by detecting luminescence. The unstimulated DMSO control wells were taken as 100% cell viability. EC50 values of the compounds were calculated using Prism Graphpad statistical software.
L929 cells: The L929 cells (mouse fibroblasts) were cultured in vitro, digested and diluted to 6.25×10^4/ml, and the cells were seeded into 384-well plates, 40 μl per well. The plate was placed in a cell incubator (37° C., 5% CO2) for 12 hours. 5 μL of Smac (500 nM) diluted in cell culture medium and 5 μL of each compound were added to the corresponding wells. After pretreatment at 37° C. for 1 h, 5 μL of TNFα (500 ng/mL) diluted in cell culture medium was added to each well of the stimulation group, and 5 μL of the culture medium was added to the control group. After the plate was cultured for 14 h in a cell incubator (37° C., 5% CO2), and 15 μl of Cell Titer-Glo solution was added to each well, then incubated at room temperature for 30 min, and intracellular ATP level was measured by detecting luminescence. The unstimulated DMSO control wells were taken as 100% cell viability.

Another experiment deals with FADD−/− Jurkat cells. The description is as above. It counts as cell-based.
From the text: as §1, §2, §3
FADD deficient Jurkat cells: FADD deficient Jurkat cells (human peripheral blood leukemia T cell line) were cultured in vitro. After growing to the logarithmic growth phase, the cells were collected, centrifuged at 1000 rpm for 5 min, the supernatant was discarded, and the cell concentration was adjusted to 2.5×10^5/mL. Cells were seeded into 384-well plates, 40 μl per well. 5 μL of Smac (50 nM) diluted in cell culture medium and 5 μL of each compound were added to the corresponding wells. After pretreatment at 37° C. for 1 h, 5 μL of TNFα (50 ng/mL) diluted in cell culture medium was added to each well of the stimulation group, and 5 μL of the culture medium was added to the control group. After the plate was cultured in a cell incubator (37° C., 5% CO2) for 14 h, 15 μl of Cell Titer-Glo solution was added to each well. The mixture was incubated for 30 min at room temperature, and intracellular ATP level was measured by detecting luminescence. The unstimulated DMSO control wells were taken as 100% cell viability.

Where [1] appears, read: Mus musculus, L929, 14 h, L929 cells (mouse), TNFa + SM164.
Setting [2] is: Mus musculus, L929, L929 cells (mouse), TNFa.
Setting [3] is: Homo sapiens, Jurkat, 14 h, TNFa + SM164, read-out: EC50 inhibitory activity on programmed cell necrosis.
Setting [4] is: Homo sapiens, Jurkat, TNFa, read-out: EC50 inhibitory activity on programmed cell necrosis.

In the case of `Cc1ccc([C@@H]2CCCN2C(=O)C(C)(C)Oc2ccc(Cl)cc2)cc1` (stereo in doubt) [QY-5-21], the EC50 with L929 cells (setting [1]) was 208 nM; in the experiment on L929 cells (setting [2]), 59.9 nM; in the experiment on FADD−/− Jurkat cells (setting [3]), 696 nM; in the experiment on FADD−/− Jurkat cells (setting [4]), 93 nM.
Consider `CN1C(=O)NC(Cc2c[nH]c3c(Cl)cccc23)C1=O` (stereo not shown) [Compound 7-Cl-O-Nec-1, reference compound], for which the EC50 is 924 nM in the experiment on L929 cells (L929 cells (mouse), TNFa + SM164); 155 nM in the experiment on L929 cells (L929 cells (mouse), TNFa); 337 nM in the experiment with FADD−/− Jurkat cells (FADD−/− Jurkat cells (human), TNFa + SM164, read-out: EC50 inhibitory activity on programmed cell necrosis); 76 nM in the experiment on FADD−/− Jurkat cells (FADD−/− Jurkat cells (human), TNFa, read-out: EC50 inhibitory activity on programmed cell necrosis).
For `Cc1noc([C@@H]2CCCN2C(=O)C(C)(C)Oc2ccccc2)n1` [QY-2-25], the EC50 with L929 cells (setting [1]) is > 10000 nM; with L929 cells (setting [2]), 2670 nM; with FADD−/− Jurkat cells (setting [3]) it was > 10000 nM; with FADD−/− Jurkat cells (setting [4]), 6180 nM.
For `Cc1noc([C@@H]2CCCN2C(=O)C(C)(C)Oc2ccc(F)cc2)n1` [QY-2-26], the EC50 in the experiment with L929 cells (setting [1]) is 982 nM; with L929 cells (setting [2]), 182 nM; in the experiment on FADD−/− Jurkat cells (setting [3]), > 10000 nM; in the experiment on FADD−/− Jurkat cells (setting [4]) it was 417 nM.
Turning to `Cc1noc([C@@H]2CCCN2C(=O)C(C)(C)Oc2ccc(N(C)C)cc2)n1` [QY-2-27], the EC50 with L929 cells (setting [1]) is > 10000 nM; in the experiment with L929 cells (setting [2]), > 10000 nM; in the experiment on FADD−/− Jurkat cells (setting [3]), > 10000 nM; with FADD−/− Jurkat cells (setting [4]), 9380 nM.
In the case of `CC(C)(Oc1ccc(Cl)cc1)C(=O)N1CCC[C@H]1c1nnc(N)s1` [QY-2-34], the EC50 with L929 cells (setting [1]), with L929 cells (setting [2]), in the experiment on FADD−/− Jurkat cells (setting [3]) and with FADD−/− Jurkat cells (setting [4]) was > 10000 nM throughout.
Consider `Cc1nc([C@@H]2CCCN2C(=O)C(C)(C)Oc2ccc(Cl)cc2)sc1C` [QY-2-38], for which the EC50 was > 10000 nM in the experiment with L929 cells (setting [1]), 1550 nM with L929 cells (setting [2]), > 10000 nM in the experiment with FADD−/− Jurkat cells (setting [3]) and 1700 nM with FADD−/− Jurkat cells (setting [4]).
For the compound `CC(C)(Oc1ccc(Cl)cc1)C(=O)N1CCC[C@H]1c1nccs1` [QY-2-39], the EC50 in the experiment with L929 cells (setting [1]) is 8920 nM; in the experiment on L929 cells (setting [2]), 1900 nM; in the experiment on FADD−/− Jurkat cells (setting [3]), > 10000 nM; in the experiment on FADD−/− Jurkat cells (setting [4]), 1060 nM.
Take `Cc1csc([C@@H]2CCCN2C(=O)C(C)(C)Oc2ccc(Cl)cc2)n1` [QY-2-52]: the EC50 came to 2370 nM in the experiment with L929 cells (setting [1]), 419 nM with L929 cells (setting [2]), 2240 nM in the experiment with FADD−/− Jurkat cells (setting [3]) and 464 nM with FADD−/− Jurkat cells (setting [4]).
The like results for `Cc1cc([C@@H]2CCCN2C(=O)C(C)(C)Oc2ccc(Cl)cc2)on1` [QY-2-53] were, in that order, 1170 nM, 172 nM, 1340 nM and 199 nM.
As to `COc1ccc(OC(C)(C)C(=O)N2CCC[C@H]2c2nc(C)no2)cc1` [QY-2-54], the EC50 in the experiment with L929 cells (setting [1]) is > 10000 nM; with L929 cells (setting [2]), 6190 nM; in the experiment on FADD−/− Jurkat cells (setting [3]) it was > 10000 nM; in the experiment on FADD−/− Jurkat cells (setting [4]), > 10000 nM.
Take `Cc1noc([C@@H]2CCCN2C(=O)C(C)(C)Oc2ccc(C#N)cc2)n1` [QY-2-55]: the EC50 with L929 cells (setting [1]) is 233 nM; in the experiment with L929 cells (setting [2]), 25 nM; with FADD−/− Jurkat cells (setting [3]), 2220 nM; in the experiment on FADD−/− Jurkat cells (setting [4]), 140 nM.
For `Cc1noc([C@@H]2CCCN2C(=O)C(C)(C)Oc2ccc(-c3ccccc3)cc2)n1` [QY-2-56] the same measures were > 10000 nM, 2120 nM, > 10000 nM and > 10000 nM.
